Source: patent US10450270B2, “Glyoxamide substituted pyrrolamide derivatives and the use thereof as medicaments for the treatment of hepatitis B” (Janssen Sciences Ireland UC, priority 2013, dated 2019)

Assays:
HBV [1] = experiment: Anti-HBV activity, HepG2.2.15 stable transfected cell line, HBV DNA from secreted virions by realtime PCR; assay type: cell-based; details: Hepatitis B virus
HBV [2] = experiment: Anti-HBV activity, HepG2.117 inducible HBV producing cell line (Tet-off), intracellular HBV DNA by realtime PCR; assay type: cell-based; details: Hepatitis B virus
[3] = Cytotoxicity in HepG2 cells, Resazurin viability assay; details: human
[4] = HepG2.2.15, 144 h, read-out: HepG 2.2.15 EC50 (μM)
[5] = HepG2.117, 72 h, read-out: HepG2 117 EC50 (μM)
[6] = 144 h, HepG2.2.15 cells, 6 days of treatment, HBV DNA from secreted virions, read-out: HepG 2.2.15 EC50
[7] = 72 h, HepG2.117 cells, 3 days of treatment, intracellular HBV DNA, read-out: HepG2 117 EC50

Compound | EC50 (HBV [1]; [4]) [µM] | EC50 (HBV [2]; [5]) [µM] | CC50 at 4 days ([3]; HepG2 cells) [nM] | EC50 (HBV [1]; [6]) [µM] | EC50 (HBV [2]; [7]) [µM] | CC50 at 4 days [3] [nM]
Cc1cc(NC(=O)c2cc(C(=O)C(=O)NC(C)C)cn2C)ccc1F [Compound 2, N-(4-fluoro-3-methylphenyl)-4-(2-(isopropylamino)-2-oxoacetyl)-1-methyl-1H-pyrrole-2-carboxamide] | 0.029 | 0.75 | > 25000 | – | – | –
Cc1cc(NC(=O)c2cc(C(=O)C(=O)NC(C)(C)C)cn2C)ccc1F [Compound 3, 4-(2-(tert-butylamino)-2-oxoacetyl)-N-(4-fluoro-3-methylphenyl)-1-methyl-1H-pyrrole-2-carboxamide] | – | – | > 25000 | 0.015 | 0.04 | –
Cc1cc(NC(=O)c2cc(C(=O)C(=O)NC(C)(C)C(N)=O)cn2C)ccc1F [Compound 8, 4-{[(2-Amino-1,1-dimethyl-2-oxoethyl)amino](oxo)acetyl}-N-(4-fluoro-3-methylphenyl)-1-methyl-1H-pyrrole-2-carboxamide] | – | – | > 25000 | 0.052 | 0.038 | –
Cc1cc(NC(=O)c2cc(C(=O)C(=O)N[C@H](C)CC#N)cn2C)ccc1F [Compound 9, 4-[{[(1R)-2-Cyano-1-methylethyl]amino}(oxo)acetyl]-N-(4-fluoro-3-methyl-phenyl)-1-methyl-1H-pyrrole-2-carboxamide] | – | – | > 25000 | 0.17 | 0.2 | –
Cn1cc(C(=O)C(=O)NC(C)(C)C)cc1C(=O)Nc1cccc(C(F)(F)F)c1 [Compound 12, 4-(2-(tert-butylamino)-2-oxoacetyl)-1-methyl-N-(3-(trifluoromethyl)phenyl)-1H-pyrrole-2-carboxamide] | 0.043 | 0.74 | – | – | – | > 25000
Cn1cc(C(=O)C(=O)NC2(C)COC2)cc1C(=O)Nc1cccc(C(F)(F)F)c1 [Compound 13, 1-methyl-4-(2-(3-methyloxetan-3-ylamino)-2-oxoacetyl)-N-(3-(trifluoro-methyl)phenyl)-1H-pyrrole-2-carboxamide] | – | – | > 25000 | 0.033 | > 1 | –
Cn1cc(C(=O)C(=O)NC(C)(C)C)cc1C(=O)Nc1cc(F)c(F)c(Cl)c1 [Compound 14, 4-(2-(tert-butylamino)-2-oxoacetyl)-N-(3-chloro-4,5-difluorophenyl)-1-methyl-1H-pyrrole-2-carboxamide] | – | – | > 25000 | 0.03 | 0.038 | –
Cn1cc(C(=O)C(=O)NC(C)(C)C)cc1C(=O)Nc1ccc(F)c(C#N)c1 [Compound 15, 4-(2-(tert-butylamino)-2-oxoacetyl)-N-(3-cyano-4-fluorophenyl)-1-methyl-1H-pyrrole-2-carboxamide] | – | – | > 25000 | 0.027 | 0.043 | –
Cn1cc(C(=O)C(=O)NC2(C)COC2)cc1C(=O)Nc1ccc(F)c(C#N)c1 [Compound 16, N-(3-Cyano-4-fluorophenyl)-1-methyl-4-{[(3-methyloxetan-3-yl)amino]-(oxo)acetyl}-1H-pyrrole-2-carboxamide] | – | – | > 25000 | 0.048 | 0.04 | –
Cn1cc(C(=O)C(=O)NC2(C)COC2)cc1C(=O)Nc1cc(F)c(F)c(Cl)c1 [Compound 17, N-(3-Chloro-4,5-difluorophenyl)-1-methyl-4-{[(3-methyloxetan-3-yl)-amino](oxo)acetyl}-1H-pyrrole-2-carboxamide] | – | – | > 25000 | 0.029 | 0.57 | –
C[C@@H](NC(=O)C(=O)c1cc(C(=O)Nc2cc(F)c(F)c(Cl)c2)n(C)c1)C(F)(F)F [Compound 18, N-(3-Chloro-4,5-difluorophenyl)-1-methyl-4-(oxo{[(1R)-2,2,2-trifluoro-1-methylethyl]amino}acetyl)-1H-pyrrole-2-carboxamide] | – | – | > 25000 | 0.054 | 0.37 | –
Cc1c(C(=O)C(=O)NC(C)(C)C)c(C)n(C)c1C(=O)Nc1ccc(F)c(C#N)c1 [Compound 19, 4-[(tert-Butylamino)(oxo)acetyl]-N-(3-cyano-4-fluorophenyl)-1,3,5-trimethyl-1H-pyrrole-2-carboxamide] | – | – | > 100000 | < 0.004 | 0.002 | –
Cc1c(C(=O)C(=O)NC(C)(C)C)c(C)n(C)c1C(=O)Nc1ccc(F)c(F)c1 [Compound 20, 4-[(tert-Butylamino)(oxo)acetyl]-N-(3,4-difluorophenyl)-1,3,5-trimethyl-1H-pyrrole-2-carboxamide] | – | – | > 25000 | < 0.004 | 0.002 | –
Cc1c(C(=O)C(=O)NC(C)(C)C)cn(C)c1C(=O)Nc1ccc(F)c(F)c1 [Compound 21, 4-[(tert-Butylamino)(oxo)acetyl]-N-(3,4-difluorophenyl)-1,3-dimethyl-1H-pyrrole-2-carboxamide] | – | – | > 25000 | 0.009 | 0.011 | –
Cc1c(C(=O)C(=O)NC(C)(C)C)cn(C)c1C(=O)Nc1ccc(F)c(C#N)c1 [Compound 22, 4-[(tert-Butylamino)(oxo)acetyl]-N-(3-cyano-4-fluorophenyl)-1,3-dimethyl-1H-pyrrole-2-carboxamide] | – | – | > 25000 | 0.01 | 0.008 | –
Cn1cc(C(=O)C(=O)NC(C)(C)C)c(Cl)c1C(=O)Nc1ccc(F)c(C#N)c1 [Compound 23, 4-[(tert-Butylamino)(oxo)acetyl]-3-chloro-N-(3-cyano-4-fluorophenyl)-1-methyl-1H-pyrrole-2-carboxamide] | – | – | > 25000 | 0.005 | 0.008 | –
C[C@@H](NC(=O)C(=O)c1cn(C)c(C(=O)Nc2ccc(F)c(C#N)c2)c1Cl)C(F)(F)F [Compound 24, 3-chloro-N-(3-cyano-4-fluoro-phenyl)-1-methyl-4-[2-oxo-2-[[(1R)-2,2,2-trifluoro-1-methyl-ethyl]amino]acetyl]pyrrole-2-carboxamide] | – | – | > 25000 | 0.02 | 0.024 | –
Cc1c(C(=O)C(=O)N[C@H](C)C(F)(F)F)cc(C(=O)Nc2ccc(F)c(C#N)c2)n1C [Compound 28, N-(3-cyano-4-fluoro-phenyl)-1,5-dimethyl-4-[2-oxo-2-[[(1R)-2,2,2-trifluoro-1-methyl-ethyl]amino]acetyl]pyrrole-2-carboxamide] | – | – | > 25000 | < 0.004 | 0.019 | –
C[C@@H](NC(=O)C(=O)c1cn(C)c(C(=O)Nc2ccc(F)c(C#N)c2)c1F)C(F)(F)F [Compound 85, N-(3-cyano-4-fluoro-phenyl)-3-fluoro-1-methyl-4-[2-oxo-2-[[(1R)-2,2,2-trifluoro-1-methyl-ethyl]amino]acetyl]pyrrole-2-carboxamide] | – | – | > 25000 | – | 0.014 | –
C[C@@H](NC(=O)C(=O)c1c(Cl)c(C(=O)Nc2ccc(F)c(C#N)c2)n(C)c1Cl)C(F)(F)F [Compound 86, 3,5-dichloro-N-(3-cyano-4-fluoro-phenyl)-1-methyl-4-[2-oxo-2-[[(1R)-2,2,2-trifluoro-1-methyl-ethyl]amino]acetyl]pyrrole-2-carboxamide] | – | – | > 25000 | – | 0.006 | –
Cn1c(Cl)c(C(=O)C(=O)NC2(C(F)(F)F)CCOC2)c(F)c1C(=O)Nc1ccc(F)c(C#N)c1 (stereo not drawn) [Compound 89, 5-chloro-N-(3-cyano-4-fluoro-phenyl)-3-fluoro-1-methyl-4-[2-oxo-2-[[3-(trifluoromethyl)tetrahydrofuran-3-yl]amino]acetyl]pyrrole-2-carboxamide] | – | – | > 25000 | – | 0.008 | –
Cn1c(Cl)c(C(=O)C(=O)NC2(C(F)(F)F)CCC2)c(F)c1C(=O)Nc1ccc(F)c(C#N)c1 [Compound 90, 5-chloro-N-(3-cyano-4-fluoro-phenyl)-3-fluoro-1-methyl-4-[2-oxo-2-[[1-(trifluoromethyl)cyclobutyl]amino]acetyl]pyrrole-2-carboxamide] | – | – | > 25000 | – | 0.032 | –
C[C@@H](NC(=O)C(=O)c1c(F)c(C(=O)Nc2ccc(F)c(C#N)c2)n(C)c1Cl)C(F)(F)F [Compound 91, 5-chloro-N-(3-cyano-4-fluoro-phenyl)-3-fluoro-1-methyl-4-[2-oxo-2-[[(1R)-2,2,2-trifluoro-1-methyl-ethyl]amino]acetyl]pyrrole-2-carboxamide] | – | – | > 25000 | – | 0.3 | –
C[C@@H](NC(=O)C(=O)c1cn(C)c(C(=O)Nc2ccc(F)c(C#N)c2)c1F)C(C)(F)F [Compound 93, N-(3-cyano-4-fluoro-phenyl)-4-[2-[[(1R)-2,2-difluoro-1-methylpropyl]-amino]-2-oxo-acetyl]-3-fluoro-1-methyl-pyrrole-2-carboxamide] | – | – | > 25000 | – | 0.015 | –
Cc1c(C(=O)C(=O)NC(C)(C)CO)cc(C(=O)Nc2ccc(F)c(C#N)c2)n1C [Compound 94, N-(3-cyano-4-fluoro-phenyl)-4-[2-[(2-hydroxy-1,1-dimethyl-ethyl)amino]-2-oxo-acetyl]-1,5-dimethyl-pyrrole-2-carboxamide] | – | – | > 25000 | – | 0.004 | –
C[C@H](CO)NC(=O)C(=O)c1cn(C)c(C(=O)Nc2ccc(F)c(C#N)c2)c1F [Compound 95, N-(3-cyano-4-fluoro-phenyl)-3-fluoro-4-[2-[[(1R)-2-hydroxy-1-methyl-ethyl]amino]-2-oxo-acetyl]-1-methyl-pyrrole-2-carboxamide] | – | – | > 25000 | – | 0.065 | –
COCC(C)(C)NC(=O)C(=O)c1cn(C)c(C(=O)Nc2ccc(F)c(C#N)c2)c1F [Compound 96, N-(3-cyano-4-fluoro-phenyl)-3-fluoro-4-[2-[(2-methoxy-1,1-dimethyl-ethyl)amino]-2-oxo-acetyl]-1-methyl-pyrrole-2-carboxamide] | – | – | > 25000 | – | 0.006 | –
